Here are results for 15 compounds from PubChem BioAssay (NCI).

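Interpolation was linear, between the two tested concentrations surrounding the appropriate level; five concentrations were tested over 48 hours in 96-well plates. The concentration for full growth arrest is given as TGI.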

Among the test systems are IGROV1 ovarian; SN12C renal; SF-268 CNS; NCI-H23 lung; U251 CNS; SNB-75 CNS; SNB-19 CNS; HCT-15 colon; OVCAR-8 ovarian; SF-539 CNS; MDA-MB-435; COLO 205 colon; MDA-MB-231 breast; SK-MEL-5 melanoma; UACC-62 melanoma; SK-OV-3 ovarian; MDA-N; ACHN renal; RPMI-8226 leukemia.
Holding throughout (assay): growth of human tumour cells (NCI), 48 h

For `Cc1cc(O)c(/C=N/C(=S)Nc2ccc(S(N)(=O)=O)cc2)c(=O)o1`, the TGI in the experiment on IGROV1 ovarian, in the experiment on SN12C renal, with SF-268 CNS, in the experiment on NCI-H23 lung, in the experiment on U251 CNS and in the experiment with SNB-75 CNS was above 100 µM throughout. Further, the TGI with SNB-19 CNS, with HCT-15 colon, with OVCAR-8 ovarian, with SF-539 CNS, in the experiment on MDA-MB-435 and in the experiment with COLO 205 colon was above 100 µM throughout. Besides, the TGI in the experiment with MDA-MB-231 breast, with SK-MEL-5 melanoma, with UACC-62 melanoma, in the experiment with SK-OV-3 ovarian, with MDA-N and in the experiment on ACHN renal was above 100 µM each time.

On to `COC(=O)C(=O)C(C(=O)C(=O)Nc1ccc(C)cc1C)c1nc2ccc(Cl)cc2[nH]c1=O` (configuration not stated), for which the TGI in the experiment with IGROV1 ovarian, in the experiment on SN12C renal, with SF-268 CNS, in the experiment with NCI-H23 lung, in the experiment on U251 CNS and with SNB-75 CNS was above 100 µM throughout. For the same compound, the TGI in the experiment on SNB-19 CNS, with HCT-15 colon, in the experiment with OVCAR-8 ovarian, in the experiment with SF-539 CNS, with MDA-MB-435 and in the experiment on COLO 205 colon was above 100 µM each time. In addition, the TGI with MDA-MB-231 breast, with SK-MEL-5 melanoma, with UACC-62 melanoma, in the experiment on SK-OV-3 ovarian, with MDA-N and in the experiment on ACHN renal was above 100 µM each time.

Consider `CCSC1=N/C(=C\c2ccco2)C(=O)N1`, for which the TGI in the experiment with IGROV1 ovarian, in the experiment with SN12C renal, with SF-268 CNS, in the experiment on NCI-H23 lung, with RPMI-8226 leukemia and in the experiment on U251 CNS was above 100 µM throughout. In addition, the TGI in the experiment with SNB-75 CNS, in the experiment with SNB-19 CNS, with HCT-15 colon, with OVCAR-8 ovarian, in the experiment with MDA-MB-435 and in the experiment with COLO 205 colon was above 100 µM in each case. Also, the TGI in the experiment on MDA-MB-231 breast, in the experiment with SK-MEL-5 melanoma, in the experiment on UACC-62 melanoma, in the experiment with SK-OV-3 ovarian, with MDA-N and in the experiment on ACHN renal was above 100 µM throughout.

Regarding `CCOC(=O)c1c[nH]c(C(=O)C=[N+]=[N-])c1C1CCN(CC)C1=S` (configuration not stated), the TGI in the experiment with IGROV1 ovarian, with SF-268 CNS, with NCI-H23 lung, in the experiment with RPMI-8226 leukemia, in the experiment with U251 CNS and in the experiment with SNB-75 CNS was above 100 µM in each case. Further, the TGI in the experiment on SNB-19 CNS, in the experiment on HCT-15 colon, with OVCAR-8 ovarian, with MDA-MB-435, in the experiment with COLO 205 colon and in the experiment with MDA-MB-231 breast was above 100 µM in each case. Also, the TGI in the experiment with SK-MEL-5 melanoma, in the experiment on UACC-62 melanoma, in the experiment with SK-OV-3 ovarian, in the experiment on MDA-N and in the experiment with ACHN renal was above 100 µM each time.

Regarding `CC(=O)[C@H]1[C@H](O)C[C@@]2(C)[C@@H]3CCc4cc(O)c(OC5OC(CO)C(O)C(O)C5O)cc4C3(C)C(=O)C[C@]12C` (some centres not stated), the TGI with IGROV1 ovarian, in the experiment on SN12C renal, with SF-268 CNS, in the experiment on NCI-H23 lung, in the experiment with U251 CNS and with SNB-75 CNS was above 100 µM in each case. Further, the TGI in the experiment on SNB-19 CNS, with HCT-15 colon, in the experiment on OVCAR-8 ovarian, in the experiment on SF-539 CNS, in the experiment with MDA-MB-435 and with COLO 205 colon was above 100 µM throughout. Also, the TGI in the experiment on MDA-MB-231 breast, with SK-MEL-5 melanoma, in the experiment on UACC-62 melanoma, in the experiment on SK-OV-3 ovarian, in the experiment with MDA-N and in the experiment on ACHN renal was above 100 µM in each case.

As to `NC(=O)[N+](=CC(=S)Nc1ccccc1Cl)C(N)=O`, the TGI in the experiment on IGROV1 ovarian, with SN12C renal, with SF-268 CNS, with NCI-H23 lung, with RPMI-8226 leukemia and with U251 CNS was above 100 µM throughout. Besides, the TGI with SNB-19 CNS, in the experiment with HCT-15 colon, in the experiment with OVCAR-8 ovarian, with SF-539 CNS, with MDA-MB-435 and with COLO 205 colon was above 100 µM each time. Moreover, the TGI in the experiment with MDA-MB-231 breast, in the experiment with SK-MEL-5 melanoma, in the experiment on UACC-62 melanoma, with SK-OV-3 ovarian, with MDA-N and with ACHN renal was above 100 µM throughout.

Turning to `Cc1ccc(S(=O)(=O)N2CCNCCN(S(=O)(=O)c3ccc(C)cc3)CCNCC2)cc1`, the TGI with IGROV1 ovarian was 42.9 µM; in the experiment on SN12C renal it was above 100 µM; in the experiment on SF-268 CNS, 55 µM; with NCI-H23 lung, above 100 µM; with U251 CNS, 41.1 µM; with SNB-75 CNS, 42.8 µM. In addition, the TGI in the experiment with SNB-19 CNS was above 100 µM; with HCT-15 colon, above 100 µM; with OVCAR-8 ovarian, 36.9 µM; with SF-539 CNS, 34.7 µM; in the experiment on MDA-MB-435, 36.4 µM; in the experiment with COLO 205 colon, 31.1 µM. Moreover, the TGI in the experiment on MDA-MB-231 breast was 60.4 µM; in the experiment on SK-MEL-5 melanoma it was 29.9 µM; with UACC-62 melanoma, 34.5 µM; with SK-OV-3 ovarian it was 41.1 µM; with MDA-N, 40.9 µM; in the experiment on ACHN renal, 89.1 µM.

`CC(C)[C@H]1NC(=O)[C@H]2N=C(S[C@H]2C)[C@@H]2CCCN2C(=O)[C@H](Cc2ccccc2)NC(=O)[C@@H]2CSC(=N2)[C@@H](Cc2ccccc2)NC(=O)[C@@H]2CSC1=N2`: the TGI in the experiment with IGROV1 ovarian is above 50 µM; in the experiment with SN12C renal, above 50 µM; with SF-268 CNS, above 50 µM; with NCI-H23 lung, above 50 µM; in the experiment on RPMI-8226 leukemia, 19.8 µM; with U251 CNS, above 50 µM. Moreover, the TGI with SNB-19 CNS, in the experiment with HCT-15 colon, with OVCAR-8 ovarian, with SF-539 CNS, in the experiment with MDA-MB-435 and in the experiment with COLO 205 colon was above 50 µM in each case. Besides, the TGI with MDA-MB-231 breast, in the experiment with SK-MEL-5 melanoma, with UACC-62 melanoma, with SK-OV-3 ovarian, in the experiment with MDA-N and in the experiment on ACHN renal was above 50 µM each time.

As for `CC(=O)Nc1cccc(N2C(=O)/C(=C\c3cccc(Oc4ccccc4)c3)SC2c2ccccc2)c1` (configuration not stated), the TGI in the experiment with SN12C renal was above 100 µM; with SF-268 CNS, above 100 µM; in the experiment with NCI-H23 lung it was above 100 µM; with RPMI-8226 leukemia, 89 µM; in the experiment on U251 CNS it was above 100 µM; in the experiment with SNB-19 CNS, above 100 µM. The TGI in the experiment on HCT-15 colon, in the experiment on OVCAR-8 ovarian, with SF-539 CNS, with MDA-MB-435, in the experiment on COLO 205 colon and with MDA-MB-231 breast was above 100 µM each time. Also, the TGI with SK-MEL-5 melanoma, in the experiment on UACC-62 melanoma, in the experiment on SK-OV-3 ovarian, in the experiment with MDA-N and with ACHN renal was above 100 µM in each case.

On to `O=C(Cn1c2ccc(Br)cc2c2nc3ccccc3nc21)Nc1ccccc1`, for which the TGI in the experiment on IGROV1 ovarian was 56.2 µM; in the experiment with SN12C renal, above 100 µM; in the experiment with SF-268 CNS it was above 100 µM; in the experiment with NCI-H23 lung, 93.6 µM; in the experiment on RPMI-8226 leukemia it was above 100 µM; in the experiment on U251 CNS, 73.5 µM. Besides, the TGI with SNB-75 CNS was 89.4 µM; with SNB-19 CNS it was above 100 µM; in the experiment with HCT-15 colon, 70.5 µM; with OVCAR-8 ovarian it was 28.4 µM; in the experiment on MDA-MB-435, above 100 µM; in the experiment on COLO 205 colon, above 100 µM. The TGI in the experiment with MDA-MB-231 breast was 34.2 µM; in the experiment with SK-MEL-5 melanoma it was above 100 µM; in the experiment on UACC-62 melanoma it was above 100 µM; in the experiment with SK-OV-3 ovarian, above 100 µM; in the experiment on MDA-N, above 100 µM; in the experiment on ACHN renal it was above 100 µM.

For `COC(=O)/C=C/[C@@H]1[C@H](C)N1S(=O)(=O)c1ccc(C)cc1` (some centres not stated), the TGI in the experiment with IGROV1 ovarian, in the experiment with SN12C renal, in the experiment with SF-268 CNS, in the experiment on NCI-H23 lung, with RPMI-8226 leukemia and in the experiment on U251 CNS was above 100 µM in each case. In addition, the TGI with SNB-19 CNS, in the experiment on HCT-15 colon, in the experiment on OVCAR-8 ovarian, in the experiment on SF-539 CNS, with MDA-MB-435 and in the experiment on COLO 205 colon was above 100 µM throughout. Besides, the TGI in the experiment with MDA-MB-231 breast, with SK-MEL-5 melanoma, in the experiment on UACC-62 melanoma, in the experiment on SK-OV-3 ovarian, with MDA-N and in the experiment on ACHN renal was above 100 µM in each case.

With `Cc1ccc(C(=O)Oc2ccccc2)cc1N=NN(C)C`, the TGI with IGROV1 ovarian, in the experiment with SN12C renal, with SF-268 CNS, in the experiment with NCI-H23 lung, with RPMI-8226 leukemia and in the experiment with U251 CNS was above 100 µM each time. In addition, the TGI in the experiment with SNB-19 CNS, with HCT-15 colon, with OVCAR-8 ovarian, in the experiment with SF-539 CNS, with MDA-MB-435 and in the experiment with COLO 205 colon was above 100 µM each time. The TGI with MDA-MB-231 breast, in the experiment with SK-MEL-5 melanoma, in the experiment on UACC-62 melanoma, in the experiment on SK-OV-3 ovarian, in the experiment on MDA-N and with ACHN renal was above 100 µM each time.

Regarding `CCCCCCCCCCCCOCC1(COCCCCCCCCCCCC)COC(c2ccc(N)cc2)OC1`, the TGI with IGROV1 ovarian, with SN12C renal, in the experiment with SF-268 CNS, in the experiment with NCI-H23 lung, with RPMI-8226 leukemia and in the experiment with U251 CNS was above 100 µM throughout. Also, the TGI in the experiment on SNB-75 CNS, with SNB-19 CNS, in the experiment with HCT-15 colon, in the experiment on OVCAR-8 ovarian, with SF-539 CNS and in the experiment with MDA-MB-435 was above 100 µM each time. The TGI in the experiment on MDA-MB-231 breast, with SK-MEL-5 melanoma, in the experiment with UACC-62 melanoma, in the experiment with SK-OV-3 ovarian, with MDA-N and in the experiment on ACHN renal was above 100 µM in each case.

On to `CSc1nc(=O)cnn1C`, for which the TGI with IGROV1 ovarian, in the experiment on SN12C renal, with SF-268 CNS, with NCI-H23 lung, in the experiment with RPMI-8226 leukemia and in the experiment with U251 CNS was above 100 µM throughout. The TGI in the experiment with SNB-75 CNS, in the experiment on SNB-19 CNS, in the experiment on HCT-15 colon, in the experiment on OVCAR-8 ovarian, in the experiment on MDA-MB-435 and in the experiment on COLO 205 colon was above 100 µM each time. The TGI in the experiment with MDA-MB-231 breast, in the experiment on SK-MEL-5 melanoma, in the experiment with UACC-62 melanoma, in the experiment with SK-OV-3 ovarian, with MDA-N and with ACHN renal was above 100 µM each time.

With `CCOc1ccc(NC(=O)C(=O)Nn2c(N)nnc2N)cc1`, the TGI in the experiment on IGROV1 ovarian, with SN12C renal, in the experiment on SF-268 CNS, in the experiment with NCI-H23 lung, with RPMI-8226 leukemia and in the experiment on U251 CNS was above 100 µM in each case. Also, the TGI with SNB-75 CNS, with HCT-15 colon, in the experiment on OVCAR-8 ovarian, in the experiment with SF-539 CNS, in the experiment on MDA-MB-435 and with MDA-MB-231 breast was above 100 µM in each case. Besides, the TGI with SK-MEL-5 melanoma, in the experiment on UACC-62 melanoma, in the experiment with SK-OV-3 ovarian, in the experiment with MDA-N and in the experiment with ACHN renal was above 100 µM throughout.
